# Patent US4024280A, “Abietanilides, their production and use” (Nippon Shinyaku Co., Ltd., priority 1974, dated 1977)
# Test system: cholesterol concentration in the blood
# Experiment: Blood cholesterol reduction in rats fed a cholesterol/sodium cholate diet
# Type: in vivo
# Settings: male rats, diet with 1% cholesterol and 0.25% sodium cholate for 3 days, control group = 0, normal group = 100
# Method: A completely synthetic diet containing 1% of cholesterol, 0.25% of sodium cholate and 0.003%, 0.01%, 0.03% and 0.1% of the test compound is given to a group of 6 male rats having a body weight of about 50 g consecutively for 3 days, and the rats are fasted overnight. Then, the rats are decapitated and their blood collected to determine the cholesterol concentration in the blood. The concentration of cholesterol in the blood is measured with Technicon Autoanalyzer (Technicon Laboratory: Method File N-24a).
# Each value shown in the Table is a relative value determined based on the supposition that the value of the control group (the cholesterol-administered group) is 0 and the value of the normal group (the non-cholesterol-administered group) is 100.
smiles,measurement,setting,value
CC(C)C1CCC2=C(CCC3C(C)(C(=O)Nc4ccccc4)CCCC23C)C1 (stereo not shown) [Δ^8 -Dihydroabietanilide],% Inhibition,dose in diet 0.003%,18%
same,% Inhibition,dose in diet 0.01%,22%
same,% Inhibition,"dose in diet 0.03%, * significant at 1% level",56%
same,% Inhibition,"dose in diet 0.1%, * significant at 1% level",93%
